Laboratory results as given in ChEMBL document CHEMBL1201862, “PubChem BioAssay data set” (2004).
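Cultured in 96-well plates, cells were exposed to test compound for 48 hours across five concentrations. The concentration for 50% growth inhibition is given as GI50.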 Active and inactive are the calls of the source. Rule as the data show it: active = GI50 up to about 1.1 µM and inactive = higher.

How the values were obtained:
Assay in all cases: growth of human tumour cells (NCI), 48 h
UACC-62 = test system: UACC-62
HOP-92 = test system: HOP-92
RXF 393 = test system: RXF 393
NCI-H226 = test system: NCI-H226
SF-295 = test system: SF-295
OVCAR-4 = test system: OVCAR-4
CAKI-1 = test system: CAKI-1
HOP-62 = test system: HOP-62
HL-60 = test system: HL-60
SF-539 = test system: SF-539
MOLT-4 = test system: MOLT-4
KM12 = test system: KM12
SK-MEL-28 = test system: SK-MEL-28
NCI-H460 = test system: NCI-H460
U-251 = test system: U-251
SF-268 = test system: SF-268
EKVX = test system: EKVX
HCT-15 = test system: HCT-15
NCI-H23 = test system: NCI-H23
OVCAR-5 = test system: OVCAR-5

Row | Compound | GI50 (UACC-62) | GI50 (HOP-92) | GI50 (RXF 393) | GI50 (NCI-H226) | GI50 (SF-295) | GI50 (OVCAR-4) | GI50 (CAKI-1) | GI50 (HOP-62) | GI50 (HL-60) | GI50 (SF-539) | GI50 (MOLT-4) | GI50 (KM12) | GI50 (SK-MEL-28) | GI50 (NCI-H460) | GI50 (U-251) | GI50 (SF-268) | GI50 (EKVX) | GI50 (HCT-15) [µM] | GI50 (NCI-H23) | GI50 (OVCAR-5)
1 | CC(=O)Nc1ccc2[nH]c(C(=O)N3CC(CCl)c4c3cc(N)c3ccccc43)cc2c1 (configuration not stated) | 0.0101 µM (active) | < 0.0191 µM (active) | < 0.01 µM (active) | < 0.0135 µM (active) | 0.0135 µM (active) | < 0.01 µM (active) | 0.0129 µM (active) | < 0.0152 µM (active) | < 0.01 µM (active) | 0.0129 µM (active) | < 0.0115 µM (active) | < 0.01 µM (active) | 0.0161 µM (active) | < 0.01 µM (active) | 0.0143 µM (active) | < 0.01 µM (active) | < 0.0148 µM (active) | 0.0267 | 0.0102 µM (active) | < 0.0179 µM (active)
2 | Nc1nc(-c2cccc([N+](=O)[O-])c2)cc(-c2cc(-c3cccc([N+](=O)[O-])c3)nc(N)n2)n1 | > 100 µM (inactive) | > 100 µM (inactive) | > 100 µM (inactive) | > 100 µM (inactive) | > 100 µM (inactive) | > 100 µM (inactive) | > 100 µM (inactive) | > 100 µM (inactive) | > 100 µM (inactive) | > 100 µM (inactive) | > 100 µM (inactive) | > 100 µM (inactive) | > 100 µM (inactive) | > 100 µM (inactive) | > 100 µM (inactive) | > 100 µM (inactive) | > 100 µM (inactive) | > 100 | > 100 µM (inactive) | > 100 µM (inactive)
3 | CCOC(=O)NC(=O)c1cn(CCN(CCO)C(=O)NCCCCCCNC(=O)N(CCO)CCn2cc(C(=O)NC(=O)OCC)c(=O)[nH]c2=O)c(=O)[nH]c1=O | > 100 µM (inactive) | > 100 µM (inactive) | > 100 µM (inactive) | > 100 µM (inactive) | > 100 µM (inactive) | > 100 µM (inactive) | > 100 µM (inactive) | > 100 µM (inactive) | > 100 µM (inactive) | > 100 µM (inactive) | > 100 µM (inactive) | > 100 µM (inactive) | > 100 µM (inactive) | > 100 µM (inactive) | > 100 µM (inactive) | > 100 µM (inactive) | > 100 µM (inactive) | > 100 | > 100 µM (inactive) | > 100 µM (inactive)
4 | CCCCCCCCCOCC(COP(=O)([O-])OCC[N+](C)(C)C)OC (configuration not stated) | > 100 µM (inactive) | > 100 µM (inactive) | > 100 µM (inactive) | 99.1 µM (inactive) | > 100 µM (inactive) | > 100 µM (inactive) | > 100 µM (inactive) | > 100 µM (inactive) | > 100 µM (inactive) | > 100 µM (inactive) | > 100 µM (inactive) | > 100 µM (inactive) | > 100 µM (inactive) | > 100 µM (inactive) | > 100 µM (inactive) | > 100 µM (inactive) | > 100 µM (inactive) | > 100 | > 100 µM (inactive) | > 100 µM (inactive)
5 | NC(Cc1ccccc1)C(=O)N[C@H]1c2ccsc2/C(=N/O)[C@H]1O (some centres not stated) | > 100 µM (inactive) | > 100 µM (inactive) | > 100 µM (inactive) | > 100 µM (inactive) | > 100 µM (inactive) | > 100 µM (inactive) | > 100 µM (inactive) | > 100 µM (inactive) | > 100 µM (inactive) | > 100 µM (inactive) | > 10 µM (inactive) |  | > 100 µM (inactive) | > 100 µM (inactive) | > 100 µM (inactive) |  | > 100 µM (inactive) | > 100 | > 100 µM (inactive) | > 100 µM (inactive)
6 | NS(=O)(=O)C1CCCCC1C(=O)NNC(=O)C(=O)Nc1nnc(S)[nH]1 (configuration not stated) | > 100 µM (inactive) | > 100 µM (inactive) | > 100 µM (inactive) | > 100 µM (inactive) | > 100 µM (inactive) | > 100 µM (inactive) | > 100 µM (inactive) | > 100 µM (inactive) | > 100 µM (inactive) | > 100 µM (inactive) | > 100 µM (inactive) | > 100 µM (inactive) | > 100 µM (inactive) | > 100 µM (inactive) | > 100 µM (inactive) | > 100 µM (inactive) | > 100 µM (inactive) | > 100 | > 100 µM (inactive) | > 100 µM (inactive)
7 | CC(C)NC(=O)OCc1c2c(n(C)c1COC(=O)NC(C)C)-c1ccccc1CC2 | 12.7 µM (inactive) | 6.73 µM (inactive) | 12.5 µM (inactive) | 11.9 µM (inactive) | 15.9 µM (inactive) | 15 µM (inactive) | 9.14 µM (inactive) | 13 µM (inactive) | 2.55 µM (inactive) | 15.4 µM (inactive) | 2.61 µM (inactive) | 15.5 µM (inactive) | 13 µM (inactive) | 14.1 µM (inactive) | 9.18 µM (inactive) | 10.2 µM (inactive) | 14.9 µM (inactive) | 14 | 6.71 µM (inactive) | 17.2 µM (inactive)
8 | C/C(=N/NC(=S)N1CCCCCC1)c1ccccc1O | 3.05 µM (inactive) | 50.2 µM (inactive) | 51.5 µM (inactive) | > 22 µM (inactive) | 4.8 µM (inactive) | 6.98 µM (inactive) | 8.05 µM (inactive) | 1.99 µM (inactive) | 2.25 µM (inactive) | 3.86 µM (inactive) | 2.26 µM (inactive) | 3.67 µM (inactive) | 8.36 µM (inactive) | 0.65 µM (active) | 1.87 µM (inactive) | 3.03 µM (inactive) | 14.9 µM (inactive) | 1.26 | 14 µM (inactive) | 12.7 µM (inactive)
9 | CO/N=C1/c2sccc2[C@H](NC(=O)C(F)(F)F)[C@@H]1O | > 100 µM (inactive) | > 100 µM (inactive) | > 100 µM (inactive) | > 100 µM (inactive) | > 100 µM (inactive) | > 100 µM (inactive) | > 100 µM (inactive) | > 100 µM (inactive) | > 100 µM (inactive) | > 100 µM (inactive) | > 100 µM (inactive) |  | > 100 µM (inactive) | > 100 µM (inactive) | > 100 µM (inactive) | > 100 µM (inactive) | > 100 µM (inactive) | > 100 | > 100 µM (inactive) | > 100 µM (inactive)
10 | O=C1CNC(=O)N1 [HYDANTOIN] | > 1120 µM (inactive) | > 11.2 µM (inactive) | > 1120 µM (inactive) | 11.2 µM (inactive) | > 1120 µM (inactive) | > 1120 µM (inactive) | > 1120 µM (inactive) | > 1120 µM (inactive) | > 1120 µM (inactive) | > 1120 µM (inactive) | > 1120 µM (inactive) | > 1120 µM (inactive) | > 1120 µM (inactive) | > 1120 µM (inactive) | > 1120 µM (inactive) | > 1120 µM (inactive) | > 1120 µM (inactive) | > 1120 | > 1120 µM (inactive) | > 1120 µM (inactive)
